Measurements from US20100286056A1, “COMPOSITIONS FOR REDUCING OXIDATIVE STRESS AND USES THEREOF” (priority 2007, published 2010).

Key:
human dermal fibroblasts = assay: UVA-induced intracellular amplification of ROS (dihydrorhodamine 123, flow cytometry); type: cell-based
Protocol: The modulating effect of the tripeptides […]) and Thyrotropin Releasing Hormones (TRH, Protirelin, Thyoliberin, […]) was examined on human dermal fibroblasts that were seeded into 3.5 cm^2 tissue culture dishes in a density of 150,000 per dish in […] medium. Two days after seeding the cells, the medium supplemented with 10% foetal calf serum, 1% L-glutamine and 1% penicillin/streptomycin was exchanged with serum-free RPMI medium and pre-incubated for 24 hours with KPV, […] Subsequently, the cells were exposed to a physiological dose of UVA radiation (10 J/cm^2). Immediately after radiation, the cells were incubated with 5 μM dihydrorhodamine 123 plus 5 mM glucose in phosphate buffer (PBS) for 30 minutes. Subsequently, the cells were trypsinized, resuspended in PBS with 5 mM glucose and analyzed by means of flow cytometry (FACS, FACSCalibur with 488 nm argon laser). The above dihydrorhodamine probe is oxidized in the presence of intracellular ROS into green fluorescent […] and, thus, can be measured fluorometrically. A total of 10×10^3 cells per probe were analyzed and evaluated using CELL-QUEST software. The median of the FL-1 channel was used as parameter for the intracellular ROS amount, since it represents the maximum number of cells with the highest fluorescence. […]

B16.F1 melanoma cells = assay: Extracellular melanin accumulation (optical density 405 nm); type: cell-based, mouse; details: peptides at 10^-6, 10^-8 and 10^-10 M; NDP-α-MSH 10^-8 M; 72 hrs (FIG. 3)
Text: It is also preferred that the compounds of the invention have no or merely a negligible melanotropic effect. “Melanotropic effect” means that the compound induces the extracellular melanin accumulation in a cell assay in accordance with the method described in the appended example 2 and/or in accordance with the method described in Siegrist and Eberle (Anal. Biochem. 1986; 159; 191-197), title “In situ melanin assay for MSH using mouse B16 melanoma cells in culture”. “No or negligible” means that the mean melanin accumulation which is induced by the compounds of the invention exceeds the mean melanin accumulation which is induced by at least one of the two compounds as exemplified in Example 2 by not more than about 40%, 30%, 20%, 15%, 10%, 5%, 2.5%, 2% or 1%, preferably under conditions which equate to or are identical with those set out in Example 2. The skilled person is able to justify which assay conditions/assays equate with the assay/conditions exemplified in the appended examples. The melanin accumulation evaluated in Example 2 is depicted in FIG. 3. The effect of the compounds of the invention on extracellular melanin accumulation is thus determinable by the methods disclosed herein. […]

Molecule | UVA-induced intracellular amplification of ROS (oxidative stress) (human dermal fibroblasts; 10^-8 M peptide, 24 h pre-incubation, UVA 10 J/cm^2, significant, p<0.001 (FIG. 1)) | effect on UVA-induced intracellular amplification of ROS compared to vitamin C (ascorbate) (human dermal fibroblasts; peptide 10^-8M vs vitamin C at 10^-2M as printed (FIG. 2)) | melanotropic effect (extracellular melanin accumulation) (B16.F1 melanoma cells)
NC(=O)[C@@H]1CCCN1C(=O)[C@H](Cc1c[nH]cn1)NC(=O)[C@@H]1CCC(=O)N1 [TRH, L-Pyroglutamyl-L-histidyl-L-prolinamid] | suppressed | comparable with that of vitamin C | 
NDP-α-MSH |  |  | p<0.001 vs. control
